This note sets out measurements from patent US10183273B2, “Absorbent article comprising cyclodextrin complexes” (The Procter & Gamble Company, priority 2016, dated 2019).

A short description of the assay: Thiol Vapor Pressure Suppression (TVPS) index, zNose fast GC headspace. Also noted: key: % reduction in butanethiol headspace peak area vs control. The settings on record: percentage reduction in butanethiol headspace peak area; 5 μl compound, 37° C. 4 hours. The text has this:
Thiol Vapor Pressure Suppression (TVPS) index is a measure of the reduction in butanethiol concentration in the headspace by a compound, as measured using a fast GC instrument, the zNose 7100 (Electronic Sensor Technologies, Newbury Park, Calif.).
Thiol Vapor Pressure Suppression (TVPS) index is a measure of the reduction in butanethiol concentration in the headspace by a compound, as measured using a fast GC instrument, the zNose 7100 (Electronic Sensor Technologies, Newbury Park, Calif.) based on an Surface Acoustic Wave (SAW) Quartz microbalance detector, or equivalent.
Before any measurements the instrument is calibrated according to manufacturer's instructions under the same experimental settings. The instrument has a DB-5 column (also available from Electronic Sensor Technologies, Newbury Park, Calif.) 1 m in length, 0.25 μm phase thickness, and 0.25 mm in diameter.
For analysis, the zNose is programmed with the Sensor Temperature, Inlet Temperature, Valve Temperature, and Initial Column Temperature all set to 40° C. The oven is temperature gradient is programmed at a rate of 10 C°/s from 40° C. to a final temperature of 200° C.
TVPS of a compound is measured in the following way: 100 μl±1 μl of a 1% v/v butanethiol (99%, purity, available from Sigma-Aldrich, St. Louis, Mo.) solution in ethanol (200 proof) is added into a 1 ml vial (8×40 mm). These vials are borosilcate glass straight walled vial. In another 1 ml vial (8×40 mm), 5 μl±0.2 μl of the compound is added. Both open vials are then placed inside a 20 mL headspace vial (22×75 mm), and the vial is immediately sealed using a screw thread closure with PTFE/Silicone septa. The vial is heated to 37° C. for 4 hours. After 4 hours, the vial is removed from the oven and let to equilibrate at 25° C.±2° C. for 15 minutes. The headspace inside the vial is sampled using the zNose is sampled for 10 s and analyzed following the experimental protocol outlined above. Samples with butanethiol alone, and the volatile active alone, are run using the same protocol to identify the peaks for both materials. An acceptable retention index for butanethiol is 720±30. If the peaks butanethiol peak and the volatile material peak co-elute, one skilled in the art can modify the protocol settings to separate those peaks to achieve a minimum resolution of 1.5. For example one can change the column temperature ramp rate. In between samples, the instrument needs to be cleaned to remove any trace materials. To clean the instrument, the instrument is run without samples as needed until no peaks greater than 100 counts are observed.
The amount of butanethiol in the headspace is measured from the area of the peak on the chromatograph for butanethiol (ABtSH,Rx). To calculate the percentage of butanethiol reduction in the headspace, a control with the butanethiol solution without the volatile material is run in the same manner and the area is measured as well (ABtSH,C). TVPS is then measured as the percentage reduction in butanethiol area calculated using the following formula: […]
Compound `CC(C)c1cccc(C(C)CC=O)c1` (stereo not drawn) [Florhydral] yielded a TVPS of 53.3.

As for `CC(C)=CCCC(C)CCCC(C)C=O` (stereo not drawn) [adoxal], the TVPS was determined as 24.4.

As to `CC(C)=CCCC(C)C=O` (stereo not drawn) [melonal], the TVPS amounted to 20.4.

`CC(C)=CCC/C(C)=C\C=O` [neral]: the TVPS was 17.1.

With `CC1=CC(C)C(C=O)CC1` (stereo not drawn) [ligustral], the TVPS is listed as 42.5.

`CCCCCCC(C=O)=Cc1ccccc1` [Hexylcinnamic aldehyde] registered a TVPS of 8.0.

In the case of `C=CC(C)CCC=C(C)CCC=O` (stereo not drawn) [Floral Super], the TVPS is given as 52.4.

In turn, `CCC/C=C/C=O` [trans-2-hexenal] showed a TVPS of 27.1.

`Cc1ccc(C=O)s1` [5-methyl-2-thiophene-carboxaldehyde]: the TVPS was found to be 67.4.
